Key:
Type in all cases: in vitro ADME
[1] = Metabolic stability in hepatocytes, CD-1 mice; settings: CD-1 mice hepatocytes
Procedure: Purpose of the assay: Metabolic stabilities of assay compounds in hepatocytes of CD-1 mice, SD rats, beagle dogs, cynomolgus monkeys, and human were assayed, respectively.
Procedure of the assay: Several 96-well sample precipitation plates were prepared and named T0, T15, T30, T60, T90, T120, TO-MC, T120-MC and blank substrates, respectively. The recovery medium and incubation medium were taken out in advance and placed in a 37° C. water bath for pre-heating. Cryopreserved hepatocytes were removed from the liquid nitrogen tank and immediately immersed in a 37° C. water bath (approximately 90 seconds). After the cryopreserved hepatocytes had thawed and loosened, they were poured into a centrifuge tube containing 40 mL of recovery medium, and the tube was gently inverted to allow the cells to be resuspended in the recovery medium. The cells were centrifuged at 100×g at room temperature for 5 min, and the supernatant was removed. The hepatocytes were resuspended in an appropriate volume of incubation medium, and the cell viability was calculated by Trypan Blue staining method. 198 μL of hepatocyte suspension (0.51×10^6 cells/mL) was added to the preheated incubation plate. For the culture medium control group, 198 μL of hepatocyte-free incubation medium was added to T0-MC and T120-MC incubation plate. All incubation plates were pre-incubated in a 37° C. incubator for 10 minutes. Then 2 μL of working solutions of the assay sample and the control compound were added, respectively, and the mixture was mixed well. The incubation plate was immediately put into the shaker in the incubator, and the reaction was initiated while starting the timer. For each time point of each compound, 2 duplicate samples were prepared. The incubation conditions were 37° C., saturated humidity, and 5% CO2. In the assay system, the final concentration of the assay sample was 1 μM, the final concentration of the control sample was 3 μM, the final concentration of hepatocytes was 0.5×10^6 cells/mL, and the final concentration of the total organic solvent was 0.96%, of which the final concentration of DMSO was 0.1%. At the end of the incubation for the corresponding time point, the incubation plate was taken out, and 25 μL of a mixture of compound and control compound with cells was added to the sample plate containing 125 μL of stop solution (200 ng/mL tolbutamide and labetalol in acetonitrile). For the Blank sample plate, 25 μL of hepatocyte-free incubation medium was added directly. After sealing, all sample plates were shaken on a shaker at 600 rpm for 10 minutes, and then centrifuged at 3220×g for 20 minutes. Supernatants of the assay sample and the control sample were diluted with ultrapure water at a ratio of 1:3. All samples were mixed well and analyzed by LC/MS/MS.

[2] = Stability assay in whole blood, SD rats; settings: 5 μM, 37° C.
Procedure: (§1) Purpose of the assay: Stabilities of the assay compounds in whole blood of CD-1 mice, SD rats, Beagle dogs and cynomolgus monkeys were assayed, respectively.
(§2) Procedure of the assay: On the day of the assay or the day before the assay, fresh whole blood from CD-1 mice, SD rats, beagle dogs, and cynomolgus monkeys was collected using anticoagulant EDTA-K2. Prior to the start of the assay, the whole blood was mixed with PBS in 1:1 (v:v) and the mixture was preheated in a 37° C. water bath for 10-20 minutes. […] […] All samples were incubated in a 37° C. water bath. The final incubation concentration of the compound was 5 μM and the final incubation concentration of the control compound was 2 μM. At the end of incubation for each time point, the corresponding incubation plate was removed and 100 μL of ultrapure water was immediately added to the corresponding sample wells, and mixed well. 800 μL of a solution of 200 ng/mL tolbutamide and labetalol in acetonitrile was added to precipitate the protein. The sample plates were sealed and shaken well, and then centrifuged at 3220×g for 20 min. 150 μL of supernatant was taken out and analyzed by LC/MS/MS.

[3] = Stability assay in whole blood, CD-1 mice; settings: CD-1 mice whole blood, 5 μM, 37° C.
Procedure: as §1, §2

[4] = test system: plasma protein of SD rats; assay: Protein binding rate by equilibrium dialysis, SD rats plasma; settings: for Protein unbound rate: SD rats plasma, 2 μM, dialysis 4 hours
Procedure: Purpose of the assay: Protein binding rate of the assay compounds in plasma of CD-1 mice, SD rats, beagle dogs, cynomolgus monkeys and human was determined by equilibrium dialysis.
Procedure of the assay: Plasma samples with a compound concentration of 2 μM were prepared using plasma of the above five species, placed in a 96-well equilibrium dialysis device, and dialyzed with phosphate buffer solution at 37±1° C. for 4 hours. Warfarin was used as the control compound in this assay. The concentrations of the assay compounds in plasma and dialysis buffer were determined by LC-MS/MS method.

[5] = In vitro stability in liver microsomes, beagle dogs; settings: 0.5 mg/mL
Procedure: Purpose of the assay: Metabolic stabilities of the assay compounds in liver microsomes of CD-1 mice, SD rats, beagle dogs, cynomolgus monkeys, and human were assayed, respectively.
Procedure of the assay: Two 96-well incubation plates were prepared and named T60 incubation plate and NCF60 incubation plate, respectively. 445 μL of microsomal working solutions (liver microsomal protein concentration of 0.56 mg/mL) were added to the T60 incubation plate and the NCF60 incubation plate, respectively, and then the above incubation plates were pre-incubated in a 37° C. water bath for about 10 minutes.
After the pre-incubation, 5 μL of working solutions of the assay sample or the control compound were added to the T60 incubation plate and the NCF60 incubation plate, respectively, and the mixture was mixed well. 50 μL of potassium phosphate buffer was added to each well of the NCF60 incubation plate to initiate the reaction. 180 μL of stop solution (200 ng/mL tolbutamide and 200 ng/mL labetalol in acetonitrile) and 6 uL of NADPH regeneration system working solution were added to the T0 stop plate, and 54 μL of sample was transferred from T60 incubation plate to T0 stop plate (generation of TO sample). The reaction was initiated by adding 44 μL of NADPH regeneration system working solution to each well of the T60 incubation plate. Only 54 μL of microsome working solution, 6 uL of NADPH regeneration system working solution and 180 μL of stop solution were added to the Blank plate. Therefore, in samples of the assay compound or the control compound, the final reaction concentration of compound, testosterone, diclofenac and propafenone was 1 μM, the concentration of liver microsomes was 0.5 mg/mL, and the final reaction concentrations of DMSO and acetonitrile in the reaction system were 0.01% (v/v) and 0.99% (v/v), respectively.
After an appropriate time (e.g., 5, 15, 30, 45 and 60 minutes) of incubation, 180 μL of stop solutions (200 ng/mL tolbutamide and 200 ng/mL labetalol in acetonitrile) were added to the sample wells of each stop plate, respectively. 60 μL of sample was removed from the T60 incubation plate to stop the reaction. All sample plates were shaken well and then centrifuged at 3220×g for 20 minutes. Then 80 μL of supernatant was taken out from each well, and diluted in 240 μL of pure water for liquid chromatography-tandem mass spectrometry analysis. All samples were injected and analyzed by liquid chromatography-tandem mass spectrometry.

C=C(F)C(=O)N1CCN(c2nc(OCC3CCCN3C)nc3c2COC(c2c(F)c(N)cc(C)c2C(F)(F)F)C3)CC1CC#N.Cl (single isomer, unassigned) [Compound 8B hydrochloride]
CLint(hep) ([1]; 1 μM): 76.3 μL/min/10^6
CLint(liver) ([1]; 1 μM): 906.0 mL/min/kg
T1/2 ([1]; 1 μM): 18.2 min
Detection of assay compound content within [2]: 104%
Detection of assay compound content within 120 min [3]: 100%
Protein unbound rate [4]: 9.8
Plasma protein unbound rate PPB (Unbound %) ([4]; SD rats, as listed in PK Table 8): 9.8%
CLint(liver) ([5]; 1 μM): <13.8 mL/min/kg
CLint(mic) ([5]; 1 μM): < 9.6 µL/min/mg
T1/2 ([5]; 1 μM): >145 min

C=C(F)C(=O)N1CCN(c2nc(OC[C@@]34CCCN3C[C@H](F)C4)nc3c2COC(c2c(F)c(N)cc(C)c2C(F)(F)F)C3)C[C@@H]1CC#N (stereo partly shown) [Compound 17]
CLint(hep) ([1]; 1 μM): 146.3 μL/min/10^6
half-life at 1 μM ([1]; mouse, cryopreserved hepatocytes): 9.5 min
CLint scaled at 1 μM ([1]; mouse, cryopreserved hepatocytes, read-out: CLint(liver)): 1740 mL/min/kg
Detection of assay compound content within [2]: 115%
Detection of assay compound content within 120 min [3]: 117%
Protein unbound rate [4]: 4.8
CLint(mic) ([5]; 1 μM): < 9.6 µL/min/mg
CLint scaled at 1 μM ([5]; dog): < 13.8 mL/min/kg
half-life at 1 μM ([5]; dog): > 145 min

From patent publication US12012404B2, “Pyrimidoheterocyclic compounds and application thereof” (D3 BIO (WUXI) CO., LTD., priority 2020, dated 2024)
